Test results reported in patent US10842806B2, “Methods for treating ocular inflammatory disorders” (Massachusetts Eye and Ear Infirmary, priority 2011, dated 2020).

Columns and labels:
Type in all cases: in vivo, Lewis rats
[1] = tested on: CCL2/MCP-1; assay: CCL2/MCP-1 ELISA in aqueous humor, retina and serum of EIU rats; settings: LPS + AICAR
Description: (§1) Male Lewis rats ranging from 6-8 weeks old (Charles River, Wilmington, Mass.) were used for these studies. To study the effects of AICAR pretreatment, AICAR and PBS (for placebo treatment) were delivered via intraperitoneal injection of AICAR (50 mg/kg or 100 mg/kg body weight; Sigma) diluted in 150 μl PBS or equal volume of PBS at 6 hours before and at the same time as LPS injection. Four experimental groups of rats were compared: (1) Normal: no treatment (2) AICAR: normal rats treated with AICAR 6 hours before examination; (3) LPS: EIU rats treated with PBS; (4) LPS+AICAR: EIU rats treated with AICAR. Two additional groups of rats were used to study the effects of AICAR (50 mg/kg) given either at the same time as LPS injection or at 6 hours after LPS injection. Under deep anesthesia, experimental rats were sacrificed and the retinas were carefully removed 24 hours after LPS injection, placed into 200 μl of lysis buffer and then sonicated. The lysate was centrifuged at 13,000 rpm for 10 minutes at 4° C. and supernatant was isolated. Three hours after LPS injection, blood samples were collected from the heart and subsequently centrifuged at 3000 rpm for 30 minutes at 4° C., and serum samples were separated. Cytokine and chemokine levels in the serum, aqueous humor, and retina were assessed using the rat CCL2/MCP-1 kit (Invitrogen, Camarillo, Calif.), the rat TNF-α kit (R&D system, Minneapolis, Minn.) and the rat ICAM-1 kit (R&D systems) by ELISA.

[2] = tested on: ICAM-1; assay: ICAM-1 ELISA in aqueous humor, retina and serum of EIU rats; settings: LPS + AICAR
Description: as §1

[3] = tested on: CD14; assay: CD14 mRNA (real time PCR) and protein (Western blot) in PBMC of EIU rats; settings: three hours after LPS
Description: Male Lewis rats ranging from 6-8 weeks old (Charles River, Wilmington, Mass.) were used for these studies. To study the effects of AICAR pretreatment, AICAR and PBS (for placebo treatment) were delivered via intraperitoneal injection of AICAR (50 mg/kg or 100 mg/kg body weight; Sigma) diluted in 150 μl PBS or equal volume of PBS at 6 hours before and at the same time as LPS injection. Four experimental groups of rats were compared: (1) Normal: no treatment (2) AICAR: normal rats treated with AICAR 6 hours before examination; (3) LPS: EIU rats treated with PBS; (4) LPS+AICAR: EIU rats treated with AICAR. Two additional groups of rats were used to study the effects of AICAR (50 mg/kg) given either at the same time as LPS injection or at 6 hours after LPS injection. For preparation of peripheral blood mononuclear cell (PBMC) samples, blood samples were collected at three hours after LPS injection, and PBMC samples were isolated by density gradient centrifugation with Histopaque 1083 (Sigma). The red blood cells were lysed with Red Blood Cell Lysing Buffer (Sigma). For Western blot analysis, pooled PBMCs from three rats were homogenized with lysis buffer (Roche Diagnostics Corp) and centrifuged at 13,000 rpm for 10 minutes at 4° C. […] Quantitative expression data were acquired and analyzed with a Step One Plus real-time PCR system (Applied Biosystems).

[4] = tested on: NF-κB P65; assay: NF-κB P65 in retinal nuclear extracts (ELISA); settings: AICAR pretreatment; 3 hours after LPS; n=9; PBS-treated EIU 27.3±11.0, control 8.3±8.6
Description: Male Lewis rats ranging from 6-8 weeks old (Charles River, Wilmington, Mass.) were used for these studies. To study the effects of AICAR pretreatment, AICAR and PBS (for placebo treatment) were delivered via intraperitoneal injection of AICAR (50 mg/kg or 100 mg/kg body weight; Sigma) diluted in 150 μl PBS or equal volume of PBS at 6 hours before and at the same time as LPS injection. Four experimental groups of rats were compared: (1) Normal: no treatment (2) AICAR: normal rats treated with AICAR 6 hours before examination; (3) LPS: EIU rats treated with PBS; (4) LPS+AICAR: EIU rats treated with AICAR. Two additional groups of rats were used to study the effects of AICAR (50 mg/kg) given either at the same time as LPS injection or at 6 hours after LPS injection. To investigate the LPS-induced signal transduction pathway, NF-κB P65 protein levels translocated into the nuclei of retinal cell extracts were examined 3 hours after LPS injection. For the measurement of NF-κB activity, pooled retinas from six normal rats, nine EIU PBS-treated rats, and nine EIU AICAR-treated rats were analyzed. […] The amount of NF-κB in the nuclear extracts was analyzed by measuring the p65 protein levels with a NF-κB detection kit (p65 Transcription Factor Assay kit; Active Motif, Carlsbad, Calif.). NF-κB concentration was calculated and corrected for protein concentration.

## NC(=O)c1ncn([C@@H]2O[C@H](CO)[C@@H](O)[C@H]2O)c1N [AICAR, 5-aminoimidazole-4-carboxamide-1-β-d-ribofuranoside]
[1]; 3 hours after LPS, n=11, LPS 6.8 ± 0.5
  MCP-1 in serum: 0.4 ± 0.2 ng/mL
[1]; 24 h after LPS, n=12, LPS 4.4 ± 3.9
  MCP-1 in aqueous humor: 0.8 ± 1.0 ng/mL
[1]; 24 h after LPS, n=14, LPS 18.7 ± 11.3
  MCP-1 in retina: 8.8 ± 2.9 pg/total retinal protein
[2]; 3 hours after LPS, n=11, LPS 28.7 ± 8.1
  ICAM-1 in serum: 21.6 ± 5.0 ng/mL
[2]; 24 h after LPS, n=12, LPS 8.7 ± 4.4
  ICAM-1 in aqueous humor: 4.4 ± 3.3 ng/mL
[2]; 24 h after LPS, n=14, LPS 316.4 ± 132.3
  ICAM-1 in retina: 202.9 ± 113.4 pg/total retinal protein
[3]; AICAR pretreatment, n=9, EIU 3.8±0.7, normal 0.7±0.3
  CD14 mRNA expression in PBMCs: 1.7±1.0
[3]; AICAR-pretreated rats vs EIU rats
  CD14 protein expression in PBMCs (Western blot): decreased
[4]
  NF-κB P65 protein level in retinal nuclear extracts: 18.2±3.9 ng/mg total protein
